Usually IC50 stands for the concentration that gives 50% inhibition.

For one experiment, the target named is T1, c-Kit(V654A) (Homo sapiens, UniProt P10721, V654A).
T1 construct: amino acids 544-end containing the V654A mutation; GST (N)
Kind of experiment: c-Kit(V654A) assay. The experiment is classed as biochemical. The settings on record: recombinant human c-Kit aa 544-end, 200 μM ATP, 1.4E-06 means 1.4×10^−6, read-out: Inhibition (IC50) of c-KIT (V654A). Summed up: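 Radiometric filter-binding read-out: substrate 33P incorporation counted by scintillation after P30 filtermat washes in 75 mM phosphoric acid and methanol. Enzyme: N-GST recombinant human c-Kit aa 544-end carrying V654A.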

The next experiment concerns the target T2, PDGFRalpha(V561D) (Homo sapiens, UniProt P16234, V561D).
T2 construct: recombinant human PDGFRalpha, amino acids 550end containing the V561 D mutation; 6His (N)
Nature of the experiment: PDGFRalpha(V561D) assay. The settings on record: recombinant human PDGFRalpha aa 550-end, 200 μM ATP, 1.4E-06 means 1.4×10^−6, read-out: Inhibition (IC50) of PDGFRα (V561D). The experiment is classed as biochemical. Summed up: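 Radiometric filter-binding assay: substrate phosphorylation by recombinant N-His-tagged human PDGFRα 550-end V561D was quenched with 3% phosphoric acid after 40 min at room temperature, then counted.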

Structures can show the parent of a compound that is named as a salt.

T2 sequence (P16234 550-1089 V561D): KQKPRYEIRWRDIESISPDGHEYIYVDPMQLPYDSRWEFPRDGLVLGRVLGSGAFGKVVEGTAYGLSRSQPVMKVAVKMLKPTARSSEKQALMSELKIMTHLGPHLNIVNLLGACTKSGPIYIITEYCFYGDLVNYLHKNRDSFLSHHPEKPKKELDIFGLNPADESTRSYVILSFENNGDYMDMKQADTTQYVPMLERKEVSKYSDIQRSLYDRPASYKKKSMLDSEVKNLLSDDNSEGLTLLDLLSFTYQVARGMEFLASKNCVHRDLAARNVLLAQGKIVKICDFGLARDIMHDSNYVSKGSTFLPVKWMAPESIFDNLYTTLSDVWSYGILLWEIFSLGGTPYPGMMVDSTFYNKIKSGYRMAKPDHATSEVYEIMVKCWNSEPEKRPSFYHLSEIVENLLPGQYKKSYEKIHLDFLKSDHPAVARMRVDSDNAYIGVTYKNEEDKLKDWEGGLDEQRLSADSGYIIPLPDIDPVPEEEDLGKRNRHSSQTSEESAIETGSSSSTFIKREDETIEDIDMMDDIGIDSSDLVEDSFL
T1 sequence (P10721 544-976 V654A): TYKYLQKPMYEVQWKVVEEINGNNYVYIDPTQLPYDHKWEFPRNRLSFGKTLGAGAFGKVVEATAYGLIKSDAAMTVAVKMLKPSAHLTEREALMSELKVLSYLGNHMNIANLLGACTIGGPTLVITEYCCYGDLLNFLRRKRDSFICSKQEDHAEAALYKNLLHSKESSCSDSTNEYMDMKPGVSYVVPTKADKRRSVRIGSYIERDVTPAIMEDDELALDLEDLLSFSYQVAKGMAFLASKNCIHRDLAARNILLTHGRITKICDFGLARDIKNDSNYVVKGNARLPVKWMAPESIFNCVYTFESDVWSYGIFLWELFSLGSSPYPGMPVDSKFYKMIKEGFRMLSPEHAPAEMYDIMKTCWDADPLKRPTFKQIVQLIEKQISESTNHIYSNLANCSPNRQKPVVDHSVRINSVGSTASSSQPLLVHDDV

With `CN1CC[C@@H](Oc2ccc(-n3cc(-c4cc5cc(Cl)ccc5[nH]c4=O)nn3)cc2)C1` [A369, 6-chloro-3-{1-[4-((R)-1-methyl-pyrrolidin-3-yloxy)-phenyl]-1H-[1,2,3]triazol-4-yl}-1H-quinolin-2-one], the IC50 on c-Kit(V654A) amounted to 13 nM; at PDGFRalpha(V561D), 34 nM.
On the same counts, the results for `CO[C@H]1CCN(C(=O)c2ccc(-n3cc(-c4cc5cc(F)c(F)cc5[nH]c4=O)nn3)cc2)C1` [A114, 6,7-difluoro-3-{1-[4-((S)-3-methoxy-pyrrolidine-1-carbonyl)-phenyl]-1H-[1,2,3]triazol-4-yl}-1H-quinolin-2-one] are 20 nM and 140 nM.
On the same counts, the results for `CN1CCN(C(=O)c2ccc(-n3cc(-c4cc5cccnc5[nH]c4=O)nn3)cc2)CC1` [A64, 3-{1-[4-(4-methyl-piperazine-1-carbonyl)-phenyl]-1H-[1,2,3]triazol-4-yl}-1H-[1,8]naphthyridin-2-one] are 44 nM and 16 nM.
In the same order, the values of `CN1CCC(CCOc2ccc(-n3cc(-c4cc5cc(F)ccc5[nH]c4=O)nn3)cc2)CC1` [A163, 6-fluoro-3-(1-{4-[2-(1-methyl-piperidin-4-yl)-ethoxy]-phenyl}-1H-[1,2,3]triazol-4-yl)-1H-quinolin-2-one] are 9.9 nM and 45 nM.
With `CCN(CC)CC1CCN(C(=O)c2ccc(-n3cc(-c4cc5cc(F)c(F)cc5[nH]c4=O)nn3)cc2)C1` (centres unmarked) [A239, 3-{1-[4-(3-diethylaminomethyl-pyrrolidine-1-carbonyl)-phenyl]-1H-[1,2,3]triazol-4-yl}-6,7-difluoro-1H-quinolin-2-one], the IC50 on c-Kit(V654A) amounted to 330 nM; at PDGFRalpha(V561D) it was 1200 nM.
On the same counts, the results for `N[C@H]1CCCN(C(=O)c2ccc(-n3cc(-c4cc5cc(F)c(F)cc5[nH]c4=O)nn3)cc2)C1` [A310, 3-{1-[4-((S)-3-amino-piperidine-1-carbonyl)-phenyl]-1H-[1,2,3]triazol-4-yl}-6,7-difluoro-1H-quinolin-2-one hydrochloride] are 44 nM and 85 nM.
On the same counts, the results for `CO[C@H]1CCN(C(=O)c2ccc(-n3cc(-c4cc5cc(F)ccc5[nH]c4=O)nn3)cc2)C1` [A112, 6-fluoro-3-{1-[4-((S)-3-methoxy-pyrrolidine-1-carbonyl)-phenyl]-1H-[1,2,3]triazol-4-yl}-1H-quinolin-2-one] are 16 nM and 64 nM.
In the case of `O=C(c1ccc(-n2cc(-c3cc4cc(F)ccc4[nH]c3=O)nn2)cc1)N1CCCC1` [A273, 6-fluoro-3-{1-[4-(pyrrolidine-1-carbonyl)-phenyl]-1H-[1,2,3]triazol-4-yl}-1H-quinolin-2-one], the IC50 turned out to be 40 nM on c-Kit(V654A) and 4.1 nM at PDGFRalpha(V561D).
On the same counts, the results for `O=C(c1ccc(-n2cc(-c3cc4cccnc4[nH]c3=O)nn2)cc1)N1CCOCC1` [A47, 3-{1-[4-(morpholine-4-carbonyl)-phenyl]-1H-[1,2,3]triazol-4-yl}-1H-[1,8]naphthyridin-2-one] are 24 nM and 7 nM.
On the same counts, the results for `CO[C@H]1CN(C(=O)c2ccc(-n3cc(-c4cc5cc(F)ccc5[nH]c4=O)nn3)cc2)C[C@H]1OC` [A237, 3-{1-[4-((3R,4S)-3,4-dimethoxy-pyrrolidine-1-carbonyl)-phenyl]-1H-[1,2,3]triazol-4-yl}-6-fluoro-1H-quinolin-2-one] are 81 nM and 490 nM.
Turning to `CN(C)[C@H]1CCCN(C(=O)c2ccc(-n3cc(-c4cc5cc(F)ccc5[nH]c4=O)nn3)cc2)C1` [A332, 3-{1-[4-((S)-3-dimethylamino-piperidine-1-carbonyl)-phenyl]-1H-[1,2,3]triazol-4-yl}-6-fluoro-1H-quinolin-2-one], the IC50 amounted to 71 nM at c-Kit(V654A) and 100 nM at PDGFRalpha(V561D).
On the same counts, the results for `CN(C)[C@@H]1CCCN(C(=O)c2ccc(-n3cc(-c4cc5cc(F)ccc5[nH]c4=O)nn3)cc2)C1` [A331, 3-{1-[4-((R)-3-dimethylamino-piperidine-1-carbonyl)-phenyl]-1H-[1,2,3]triazol-4-yl}-6-fluoro-1H-quinolin-2-one] are 63 nM and 570 nM.
In the same order, the values of `O=C(c1ccc(-n2cc(-c3cc4cc(F)ccc4[nH]c3=O)nn2)cc1)N1CCCCC12COC2` [A245, 6-fluoro-3-{1-[4-(2-oxa-5-aza-spiro[3.5]nonane-5-carbonyl)-phenyl]-1H-[1,2,3]triazol-4-yl}-1H-quinolin-2-one] are 65 nM and 470 nM.
In the same order, the values of `O=C(c1ccc(-n2cc(-c3cc4cc(F)c(F)cc4[nH]c3=O)nn2)cc1)N1C[C@H]2CNC[C@H]2C1` [A307, 6,7-difluoro-3-{1-[4-((cis)-hexahydro-pyrrolo[3,4-c]pyrrole-2-carbonyl)-phenyl]-1H-[1,2,3]triazol-4-yl}-1H-quinolin-2-one] are 17 nM and 240 nM.
In the case of `O=C(c1ccc(-n2cc(-c3cc4ccc(Cl)cc4[nH]c3=O)nn2)cc1)N1CCOCC1` [A82, 7-chloro-3-{1-[4-(morpholine-4-carbonyl)-phenyl]-1H-[1,2,3]triazol-4-yl}-1H-quinolin-2-one], the IC50 at c-Kit(V654A) amounted to 14 nM; at PDGFRalpha(V561D) it was 3 nM.
On the same counts, the results for `CN1CCN(C(=O)c2ccc(-n3cc(-c4cc5c(F)c(F)ccc5[nH]c4=O)nn3)cc2)CC1` [A156, 5,6-difluoro-3-{1-[4-(4-methyl-piperazine-1-carbonyl)-phenyl]-1H-[1,2,3]triazol-4-yl}-1H-quinolin-2-one] are 26 nM and 40 nM.
As to `O=C(c1ccc(-n2cc(-c3cc4cc(F)cnc4[nH]c3=O)nn2)cc1)N1CCOCC1` [A31, 6-fluoro-3-{1-[4-(morpholine-4-carbonyl)-phenyl]-1H-[1,2,3]triazol-4-yl}-1H-[1,8]naphthyridin-2-one], the values for the IC50 on c-Kit(V654A) and on PDGFRalpha(V561D) were 99 nM and 13 nM, respectively.
With `O=C(c1ccc(-n2cc(-c3cc4c(F)cccc4[nH]c3=O)nn2)cc1)N1CCNCC1` [A119, 5-fluoro-3-{1-[4-(piperazine-1-carbonyl)-phenyl]-1H-[1,2,3]triazol-4-yl}-1H-quinolin-2-one], the figures for the IC50 on c-Kit(V654A) and at PDGFRalpha(V561D) were 9 nM and 46 nM, respectively.
In the same order, the values of `O=C(NC1CCNCC1)c1ccc(-n2cc(-c3cc4cccnc4[nH]c3=O)nn2)cc1` [A51, 4-[4-(2-oxo-1,2-dihydro-[1,8]naphthyridin-3-yl)-[1,2,3]triazol-1-yl]-N-piperidin-4-yl-benzamide] are 91 nM and 22 nM.
On the same counts, the results for `COC[C@@H]1CCCN1C(=O)c1ccc(-n2cc(-c3cc4cc(Cl)ccc4[nH]c3=O)nn2)cc1` [A253, 6-chloro-3-{1-[4-((S)-2-methoxymethyl-pyrrolidine-1-carbonyl)-phenyl]-1H-[1,2,3]triazol-4-yl}-1H-quinolin-2-one] are 44 nM and 21 nM.
On the same counts, the results for `O=C(c1ccc(-n2cc(-c3cc4cc(F)ccc4[nH]c3=O)nn2)cc1)N1CCN(C2COC2)CC1` [A230, 6-fluoro-3-{1-[4-(4-oxetan-3-yl-piperazine-1-carbonyl)-phenyl]-1H-[1,2,3]triazol-4-yl}-1H-quinolin-2-one] are 49 nM and 95 nM.
For `O=c1[nH]c2ccc(F)cc2cc1-c1cn(-c2ccc(N3CCCS3(=O)=O)cc2)nn1` [A99, 3-{1-[4-(1,1-dioxo-1|6-isothiazolidin-2-yl)-phenyl]-1H-[1,2,3]triazol-4-yl}-6-fluoro-1H-quinolin-2-one], the IC50 on c-Kit(V654A) worked out at 33 nM; on PDGFRalpha(V561D), 76 nM.
Take `O=C1COCCN1c1ccc(-n2cc(-c3cc4cc(F)ccc4[nH]c3=O)nn2)cc1F` [A33, 6-fluoro-3-{1-[3-fluoro-4-(3-oxo-morpholin-4-yl)-phenyl]-1H-[1,2,3]triazol-4-yl}-1H-quinolin-2-one]: the IC50 on c-Kit(V654A) amounted to 20 nM; at PDGFRalpha(V561D), 3 nM.
In the same order, the values of `CC(=O)OC1CCN(C(=O)c2ccc(-n3cc(-c4cc5cc(F)ccc5[nH]c4=O)nn3)cc2)CC1` [A102, acetic acid 1-{4-[4-(6-fluoro-2-oxo-1,2-dihydro-quinolin-3-yl)-[1,2,3]triazol-1-yl]-benzoyl}-piperidin-4-yl ester] are 11 nM and 48 nM.
On the same counts, the results for `O=C(c1cccc(-n2cc(-c3cc4cc(F)c(F)cc4[nH]c3=O)nn2)c1)N1CCC(N2CCCC2)C1` (centres unmarked) [A108, 3-{1-[3-([1,3′]bipyrrolidinyl-1′-carbonyl)-phenyl]-1H-[1,2,3]triazol-4-yl}-6,7-difluoro-1H-quinolin-2-one] are 83 nM and 81 nM.
For the molecule `CN[C@H]1CCN(C(=O)c2ccc(-n3cc(-c4cc5cc(F)ccc5[nH]c4=O)nn3)cc2)C1` [A312, 6-fluoro-3-{1-[4-((S)-3-methylamino-pyrrolidine-1-carbonyl)-phenyl]-1H-[1,2,3]triazol-4-yl}-1H-quinolin-2-one hydrochloride], the IC50 at c-Kit(V654A) turned out to be 61 nM; at PDGFRalpha(V561D), 290 nM.
On the same counts, the results for `O=C(c1ccc(-n2cc(-c3cc4ccccc4[nH]c3=O)nn2)cc1F)N1CCOCC1` [A37, 3-{1-[3-fluoro-4-(morpholine-4-carbonyl)-phenyl]-1H-[1,2,3]triazol-4-yl}-1H-quinolin-2-one] are 38 nM and 9 nM.
In the same order, the values of `COCC1CCCN1C(=O)c1ccc(-n2cc(-c3cc4cc(F)ccc4[nH]c3=O)nn2)cc1` (stereo in doubt) [A198, 6-fluoro-3-{1-[4-((R)-2-methoxymethyl-pyrrolidine-1-carbonyl)-phenyl]-1H-[1,2,3]triazol-4-yl}-1H-quinolin-2-one] are 30 nM and 200 nM.

Source of the values: patent US11939314B2, “Quinolin-2-one derivatives” (MERCK PATENT GMBH, priority 2016, dated 2024).
